Tests used:
Type in all cases: cell-based, E. coli
[1] = tested on: AG1ΔaraD, DH5alphaT1 ΔaraD and JM109ΔaraD; assay: Arabinose sensitivity at lower concentrations of L-arabinose (FIG. 18)
Experimental: (§1) The arabinose sensitivity was tested on the produced AG1ΔaraD and JM109ΔaraD strains. One colony of AG1ΔaraD and one colony of JM109ΔaraD were each inoculated into 2 ml LB. The cultures were grown for 8 hours, diluted 1:100 into M9 medium containing 0.2% glycerol, 25 μg/ml kanamycin, 0.01% thiamine (0.05% proline for JM109ΔaraD) and different concentrations of L-arabinose were added in the growth medium. The cultures were grown overnight at 37° C. in shaker incubator and OD600 was measured (Table 1).
The arabinose sensitivity was further tested on AG1ΔaraD, DH5alphaT1 ΔaraD and JM109ΔaraD as above but using lower concentrations of L-arabinose.

JM109ΔaraD = assay: Testing of arabinose sensitivity (M9 medium with glycerol, overnight culture, OD600); conditions: for JM109ΔaraD OD600: overnight at 37° C.
Experimental: as §1

AG1ΔaraD = assay: as above; conditions: for AG1ΔaraD OD600: overnight at 37° C.
Experimental: as §1

ΔaraD strains = assay: L-arabinose sensitivity in M9 and yeast extract medium (FIG. 19); conditions: 0,2% and 2% arabinose, overnight at 37° C.
Experimental: (§2) Additionally the L-arabinose sensitivity was tested in M9 and yeast extract medium with different glucose and arabinose concentrations (0.2% glucose, 0.2% arabinose, 2% arabinose). The cultures were incubated at 37° C. in a shaker incubator overnight. Then the OD600 was measured to quantitate the cell density.

[2] = tested on: strains with intact araD gene; assay: as above; conditions: 0,2% and 2% arabinose, overnight at 37° C.
Experimental: as §2

[3] = tested on: host deficient of the araD gene; assay: Amount of arabinose in the growth medium for selection
From the text: Any growth medium suitable for culturing E. coli cells can be used. For commercial production the growth medium will naturally be optimized in terms of the yield. Examples of suitable growth media are commercially available growth media, such as M9 and LB (available from several manufacturers, such as Fermentas, Lithuania). The amount of arabinose added in the growth medium is not critical but naturally arabinose should be present in an amount that is sufficient for the total culturing period. As low amount as 0.1% has been found sufficient for the selection. Typically arabinose is added to the medium in an amount of about 0.1% to about 2.0%, preferably in an amount of about 0.2% to about 1,0%, most preferably 0.2% to about 0.5%. However the effect of L-arabinose is observed at concentrations as low as 0.01% and L-arabinose can be added up to 5% in the growth medium. In a special embodiment, where L-arabinose is used both as a selecting agent and as a limited carbon source, 0.2% of L-arabinose is a suitable amount to be added into the growth medium.

[4] = tested on: DH5alphaT1 ΔaraDΔulaF ΔsgbE; assay: Testing of arabinose sensitivity (M9 medium with 0.5% yeast extract, OD600)
Experimental: (§3) The arabinose sensitivity was tested on the E. coli DH5alphaT1 ΔaraDΔulaFΔsgbE and AG1ΔaraDΔulaFΔsgbE strains produced and compared to those of E. coli DH5alphaT1ΔaraD and AG1ΔaraD strains. One colony of each strain was inoculated into 2 ml of M9 medium containing 0.5% yeast extract, 25 μg/ml of kanamycin, 0.2% glucose only or 0.2% or 2% L-arabinose, respectively.

DH5alphaT1 ΔaraD = assay: as above
Experimental: as §3

AG1ΔaraD ΔulaFΔsgbE = assay: as above
Experimental: as §3

AG1 ΔaraD = assay: as above
Experimental: as §3

## O=C[C@H](O)[C@@H](O)[C@@H](O)CO [L-arabinose]
[1]
  amount of L-arabinose enough to inhibit the growth: 0.0005%
JM109ΔaraD; 0.1% L-arabinose
  JM109ΔaraD OD600: 0.03
JM109ΔaraD; 0.2% L-arabinose
  JM109ΔaraD OD600: 0.026
JM109ΔaraD; 0.5% L-arabinose
  JM109ΔaraD OD600: 0.020
JM109ΔaraD; 1% L-arabinose
  JM109ΔaraD OD600: 0.025
JM109ΔaraD; 2% L-arabinose
  JM109ΔaraD OD600: 0.021
JM109ΔaraD; Table 1
  amount of L-arabinose enough to inhibit the growth: 0.1%
AG1ΔaraD; 0.1% L-arabinose
  AG1ΔaraD OD600: 0.03
AG1ΔaraD; 0.2% L-arabinose
  AG1ΔaraD OD600: 0.030
AG1ΔaraD; 0.5% L-arabinose
  AG1ΔaraD OD600: 0.030
AG1ΔaraD; 1% L-arabinose
  AG1ΔaraD OD600: 0.024
AG1ΔaraD; 2% L-arabinose
  AG1ΔaraD OD600: 0.017
AG1ΔaraD; Table 1
  amount of L-arabinose enough to inhibit the growth: 0.1%
ΔaraD strains
  effect on growth of the ΔaraD strains: inhibited the growth
[2]
  effect on growth of strains with intact araD gene: not inhibited
[3]
  amount of arabinose found sufficient for the selection: 0.1%
  concentration at which the effect of L-arabinose is observed: 0.01%
[4]; 0.2% L-arabinose
  OD600 Glc + 0.2% L-arabinose: 0.75
[4]; 2% L-arabinose
  OD600 Glc + 2% L-arabinose: 0.28
DH5alphaT1 ΔaraD; 0.2% L-arabinose
  OD600 Glc + 0.2% L-arabinose: 0.95
DH5alphaT1 ΔaraD; 2% L-arabinose
  OD600 Glc + 2% L-arabinose: 0.35
AG1ΔaraD ΔulaFΔsgbE; 0.2% L-arabinose
  OD600 Glc + 0.2% L-arabinose: 0.82
AG1ΔaraD ΔulaFΔsgbE; 2% L-arabinose
  OD600 Glc + 2% L-arabinose: 0.35
AG1 ΔaraD; 0.2% L-arabinose
  OD600 Glc + 0.2% L-arabinose: 0.82
AG1 ΔaraD; 2% L-arabinose
  OD600 Glc + 2% L-arabinose: 0.26

Source: US7521182B2, “Selection system containing non-antibiotic resistance selection marker” (priority 2003, dated 2009)
